Measurements from patent publication US20070073056A1, “4-Substituted Pyrazoline Compounds, their Preparation and Use as Medicaments” (LABORATORIOS DEL DR. ESTEVE, S.A., priority 2005, published 2007).
Structures can show the parent of a compound that is named as a salt.

Key:
CB1-receptor [1] = target: CB1-receptor (UniProt P20272); assay: binding of the pyrazoline compounds to CB1-receptors (Pharmacological Methods, Part I); set-up: IC50; species or system human or rat; conditions: radioligand [3H]-CP55940, read-out: IC50
Protocol: (§1) I. In-vitro Determination of Affinity to CB1/CB2-Receptors
(§2) The in-vitro determination of the affinity of the inventive 4-substituted pyrazoline compounds to CB1/CB2-Rezeptors is carried out as described in the publication of Ruth A. Ross, Heather C. Brockie et al., “Agonist-inverse agonist characterisation at CB1 and CB2 cannabinoid receptors of L-759633, L759656 and AM630”, British Journal of Pharmacology, 126, 665-672, (1999), whereby the transfected human CB1 and CB2 receptors of Receptor Biology, Inc. are used. The radioligand used for both receptors is [^3H]-CP55940. The respective parts of the description is hereby incorporated by reference and forms part of the present disclosure.
(§3) Rat Cerebellum CB1 Binding
(§4) Binding affinity to CB1 receptor was evaluated according to a modification of the method described by Govaerts et al., Eur J Pharmac Sci 23, 233-243 (2004). The respective parts of the description is hereby incorporated by reference and forms part of the present disclosure.
(§5) Briefly, cerebellum from male wistar rats (250-300 g) were carefully dissected on ice and homogenates were prepared with Potter-Helveheim in a cold 50 mM Tris-HCl solution containing 5 mM MgCl2, 1 mM EDTA and 0.25 M sucrose, pH 7.4. The suspension was centrifuged at […] for 5 minutes. The supernatants were collected and centrifuged 50,000×g for 15 minutes. The resulting pellets were then resuspended in Tris-HCl buffer without sucrose, homogenized and incubated for 15 min at 37° C. in an orbital shaker bath and centrifuged again at 50,000×g for 15 min. Pellets were weighted, resuspended in Tris-HCl buffer without sucrose, homogenized with Ultraturrax at 13,500 rpm for 3×5 seconds and alicuoted in 0.9 ml volumes in Eppendorf tubes. Alicuotes were centrifuged at 20,800×g for 5 minutes, supernatants discarded and pellets were frozen at −80° C. until use. Total protein concentration was determined using the Bio-Rad Lowry method based kit. Competitive binding experiments were performed in presence of 1 nM [^3H]-CP 55,940 in siliconized glass tubes containing 100 μg protein/tube resuspended in 1 ml final volume of 50 mM Tris-HCl, 5 mM MgCl2, 1 mM EDTA, 0.5% (w/v) bovine serum albumin, pH 7.4. Compounds were present at various concentrations and the non specific binding was determined in the presence of 10 μM HU-210. After 1 hour incubation at 30° C., the suspension was rapidly filtered through 0.5% PEI pre-treated GF/B fiber filters on a 96-well harvester and washed 3 times with 3 ml ice-cold binding buffer without bovine serum albumin. Radioactivity on filters was measured with Wallac Winspectral 1414 counter by liquid scintillation in 6 ml Ecoscint H (National Diagnostics, U.K.). Assays were made in triplicates.
(§6) Binding data were analyzed by non-linear regression with the software GraphPad Prism Version 3.03.
(§7) The binding of the pyrazoline compounds of general formula I to CB1-receptors was determined according to the method described in the section Pharmacological Methods, Part I.

CB1-receptor [2] = target: CB1-receptor (UniProt P20272); assay: as above; set-up: other: 10^−7 M; other: 10^−8 M; species or system human or rat
Protocol: as §1, §2, §3, §4, §5, §6, §7

Structure (SMILES)	IC50 (CB1-receptor [1]) [nM]	Inhibition (CB1-receptor [2]; 10^−7 M) [%]	Inhibition (CB1-receptor [2]; 10^−8 M, in %)
C[C@H]1C(C(=O)NN2CCCCC2)=NN(c2ccc(Cl)cc2Cl)[C@@H]1c1ccc(Br)s1 (relative stereo) [Example 71, trans-5-(5-Bromo-thiophen-2-yl)-1-(2,4-dichloro-phenyl)-4-methyl-4,5-dihydro-1H-pyrazole-3-carboxylic acid piperidin-1-ylamide]	> 1000		
C[C@@H]1C(C(=O)NN2CCCCC2)=NN(c2ccc(Cl)cc2Cl)[C@@H]1c1ccc(Cl)s1 (relative stereo) [Example 427, cis-5-(5-chlorothiophen-2-yl)-1-(2,4-dichlorophenyl)-4-methyl-N-(piperidin-1-yl)-4,5-dihydro-1H-pyrazole-3-carboxamide hydrochloride]	160		
C[C@H]1C(C(=O)N2CCN(C3CCCCC3)CC2)=NN(c2ccc(Cl)cc2Cl)[C@H]1c1ccc(Cl)cc1 (relative stereo) [Example 5, cis-[5-(4-Chloro-phenyl)-1-(2,4-dichloro-phenyl)-4-methyl-4,5-dihydro-1H-pyrazol-3-yl]-(4-cyclohexyl-piperazin-1-yl)-methanone]	200		
C[C@@H]1C(C(=O)NN2C(=O)c3cccc4cccc(c34)C2=O)=NN(c2ccc(Cl)cc2Cl)[C@@H]1c1ccc(Cl)cc1 (relative stereo) [Example 104, cis-5-(4-Chlorophenyl)-1-(2,4-dichlorophenyl)-4-methyl-4,5-dihydro-1H-pyrazole-3-carboxylic acid (1,3-dioxo-1H,3H-benzo[de]isoquinolin-2-yl)-amide]		31.7	−0.4
CC[C@@H]1C(C(=O)NN2CCCCC2)=NN(c2ccc(Cl)cc2Cl)[C@@H]1c1ccc(Br)cc1.Cl (relative stereo) [Example 428, cis-5-(4-bromophenyl)-1-(2,4-dichlorophenyl)-4-ethyl-N-(piperidin-1-yl)-4,5-dihydro-1H-pyrazole-3-carboxamide hydrochloride]		42.6	28.4
COC[C@H]1CCCN1NC(=O)C1=NN(c2ccc(Cl)cc2Cl)[C@H](c2ccc(Cl)cc2)[C@@H]1C.Cl (mixture of isomers) [Example 106, cis-5-(4-chlorophenyl)-1-(2,4-dichlorophenyl)-N-((R)-2-(methoxymethyl)pyrrolidin-1-yl)-4-methyl-4,5-dihydro-1H-pyrazole-3-carboxamide hydrochloride]		39	20.4
C[C@H]1C(C(=O)NN2CC3CCCC3C2)=NN(c2ccc(Cl)cc2Cl)[C@H]1c1ccc(F)cc1.Cl (relative stereo) [Example 233, cis-1-(2,4-dichlorophenyl)-5-(4-fluorophenyl)-N-(hexahydrocyclopenta[c]pyrrol-2(1H)-yl)-4-methyl-4,5-dihydro-1H-pyrazole-3-carboxamide hydrochloride]		43.9	27.9
C[C@H]1C(C(=O)NN2CCc3ccccc32)=NN(c2ccc(Cl)cc2Cl)[C@H]1c1ccc(Cl)cc1 (relative stereo) [Example 15, cis-5-(4-Chloro-phenyl)-1-(2,4-dichloro-phenyl)-4-methyl-4,5-dihydro-1H-pyrazole-3-carboxylic acid (2,3-dihydro-indol-1-yl)-amide]	100		
COc1ccc([C@H]2[C@@H](C)C(C(=O)O)=NN2c2ccc(Cl)cc2Cl)cc1 (racemic) [Example 261, cis-1-(2,4-dichlorophenyl)-5-(4-methoxyphenyl)-4-methyl-4,5-dihydro-1H-pyrazole-3-carboxylic acid]		−6.9	−5
C[C@H]1C(C(=O)NN2CC3CCCC3C2)=NN(c2ccc(Cl)cc2Cl)[C@H]1c1ccc(Br)cc1 (relative stereo) [Example 213, cis-5-(4-bromophenyl)-1-(2,4-dichlorophenyl)-N-(hexahydrocyclopenta[c]pyrrol-2(1H)-yl)-4-methyl-4,5-dihydro-1H-pyrazole-3-carboxamide hydrochloride]	53		
C[C@H]1C(C(=O)O)=NN(c2ccc(Cl)cc2Cl)[C@H]1c1ccc(Br)cc1 (relative stereo) [Example 413, cis-5-(4-bromophenyl)-1-(2,4-dichlorophenyl)-4-methyl-4,5-dihydro-1H-pyrazole-3-carboxylic acid]		17.3	13.8
C[C@H]1C(C(=O)NN2CCCCC2)=NN(c2ccc(Cl)cc2Cl)[C@H]1c1cc(Br)cs1 (relative stereo) [Example 75, cis-5-(4-Bromo-thiophen-2-yl)-1-(2,4-dichloro-phenyl)-4-methyl-4,5-dihydro-1H-pyrazole-3-carboxylic acid piperidin-1-ylamide]	180		
C[C@@H]1C(C(=O)NN2Cc3cccc4cccc(c34)C2)=NN(c2ccc(Cl)cc2Cl)[C@@H]1c1ccc(Cl)cc1 (relative stereo) [Example 105, cis-5-(4-Chlorophenyl)-1-(2,4-dichlorophenyl)-4-methyl-4,5-dihydro-1H-pyrazole-3-carboxylic acid (1H,3H-benzo[de]isoquinolin-2-yl)-amide]		31.4	35.9
C[C@@H]1C(C(=O)O)=NN(c2ccccc2Cl)[C@@H]1c1ccc(Cl)s1 (relative stereo) [Example 363, cis-1-(2-chlorophenyl)-5-(5-chlorothiophen-2-yl)-4-methyl-4,5-dihydro-1H-pyrazole-3-carboxylic acid]		11.3	12.2
C[C@H]1C(C(=O)NN2CCc3ccccc32)=NN(c2ccc(Cl)cc2Cl)[C@H]1c1ccc(F)cc1 (relative stereo) [Example 235, cis-1-(2,4-dichlorophenyl)-5-(4-fluorophenyl)-N-(indolin-1-yl)-4-methyl-4,5-dihydro-1H-pyrazole-3-carboxamide]		25.9	5.4

The next lines start with the values.

IC50 (CB1-receptor [1]) [nM]	Inhibition (CB1-receptor [2]; 10^−7 M) [%]	Inhibition (CB1-receptor [2]; 10^−8 M, in %)	Structure (SMILES)
79			C[C@@H]1C(C(=O)NN2CCCCC2)=NN(c2ccc(Cl)cc2Cl)[C@H]1c1ccc(Cl)cc1 (relative stereo) [Example 431, trans-5-(4-chlorophenyl)-1-(2,4-dichlorophenyl)-4-methyl-N-(piperidin-1-yl)-4,5-dihydro-1H-pyrazole-3-carboxamide]
89			C[C@@H]1C(C(=O)NN2CCCCC2)=NN(c2ccc(Cl)cc2Cl)[C@@H]1c1ccc(Cl)cc1 (relative stereo) [Example 434, cis-5-(4-chlorophenyl)-1-(2,4-dichlorophenyl)-4-methyl-N-(piperidin-1-yl)-4,5-dihydro-1H-pyrazole-3-carboxamide]
	36.2	28.7	C[C@@H]1C(C(=O)NN2CCCCCC2)=NN(c2ccc(Cl)cc2Cl)[C@@H]1c1ccc(F)cc1 (stereo in doubt) [Example 414, cis-N-(azepan-1-yl)-1-(2,4-dichlorophenyl)-5-(4-fluorophenyl)-4-methyl-4,5-dihydro-1H-pyrazole-3-carboxamide]
	75.5	37	C[C@@H]1C(C(=O)NN2CCCCCCC2)=NN(c2ccc(Cl)cc2Cl)[C@@H]1c1ccc(Cl)cc1 (relative stereo) [Example 120, cis-N-(azocan-1-yl)-5-(4-chlorophenyl)-1-(2,4-dichlorophenyl)-4-methyl-4,5-dihydro-1H-pyrazole-3-carboxamide]
	−23.3	−27.3	C[C@@H]1C(C(=O)NN2CCCCC2)=NN(c2ccc(Cl)cc2Cl)[C@H]1c1ccc(O)cc1 (relative stereo) [Example 344, trans-1-(2,4-dichlorophenyl)-5-(4-hydroxyphenyl)-4-methyl-N-(piperidin-1-yl)-4,5-dihydro-1H-pyrazole-3-carboxamide]
	38.5	14.8	C[C@@H]1C(C(=O)NN2CCCCC2)=NN(c2ccc(Cl)cc2Cl)[C@@H]1c1ccc(F)cc1.Cl (relative stereo) [Example 417, cis-1-(2,4-dichlorophenyl)-5-(4-fluorophenyl)-4-methyl-N-(piperidin-1-yl)-4,5-dihydro-1H-pyrazole-3-carboxamide hydrochloride]
